Assay results as given in US20150237877A1, “METHODS OF HANDLING PERSIMMONS” (AGROFRESH INC., priority 2012, published 2015).

Experiments:
Type in all cases: in vivo, Persimmon (Diasoyros kaki)
[1] = tested on: persimmons, variety Giombo; experiment: Example 1: pulp firmness of persimmons, MCP before storage, ethanol after storage; settings: for Pulp Firmness, Day 0 / Pulp Firmness, Day 1 / Pulp Firmness, Day 4: 1000 ppb of MCP
Procedure: Persimmons are harvested in Mogi das Cruzes—SP—Brazil and packed in RPC (Recycle Plastic Container) and shipped to Piracicaba—SP. At the same day of harvest part of the persimmons are packed in MAP bags. • Location: Brazil • Variety: Giombo (astringent and need to be treated with ethanol to be ready to eat) • Storage at 12° C. for 15 days • MAP Bag: a Nylon bag with dimensions of 27″ (68.6 cm) width by 28″ (71.1 cm) length made from Kenylon 6250 Polyamide Film available from FM Packaging. • MCP application before the storage • Ethanol Application after the storage
For the MAP bag used, the base film has 25 microns thickness without laser holes. The oxygen (O2) permeation of the MAP bag used is about 28 cc/m^2-day and the CO2 permeation is about 227 cc/m^2-day. The bags are laser drilled in the length direction with 105 micron holes at two locations 9″ (22.9 cm) from each side of the bag. The hole spacing is 9.06 mm. The total number of laser holes in the 20″ (8″ for tie off) length direction of the bag are about 228 holes. At an average hole diameter of 105 micron (pi×r^2=8630 micron^2), the 228 holes can provide an open area of ˜2.0 mm^2. The OTR of the bag is calculated to be 32,250 cm^3/day.
(§1) The Test Protocol is as follows. 4 MAP bags are packed. Each bag holds approximately 16 kg (36 lb) of persimmons. One such bag is packed in each RPC. Total weight of persimmons in MAP bags is approximately 64 kg. Approximately 64 kg of persimmons are placed into RPC identical to those used for the MAP bags.
(§2) The MAP-packaged persimmons are packaged as follows: 80 fruits, approximately 16 kg are carefully placed into microperforated bags, and the bags are sealed by twisting the open side of the bag, folding down the twisted end, and placing a rubber band around the twisted and folded end of the bag.
(§3) The appropriate weight of persimmons is placed in each bag after harvest and shipment. Bags are placed in RPC carrying devices. Persimmons are moved to a Cold Room at 12° C. next.
(§4) On the same day the persimmons are bagged, each treatment set is marked, placed in a hermetical chamber at the Cold Room. All chambers are of equal size and packed the same way. Treatment lasts for 12 hours. In the chambers for the “MCP” treatment groups, at the beginning of the treatment period, SmartTabs™ tablets are placed in the chamber. The amount of SmartTab™ tablets is chosen to achieve the indicated concentration of 1-methylcyclopropene in the atmosphere of the chamber.
Persimmons used in this trial are an astringent variety. To remove the astringency the fruits were treated with ethanol after the 15 days at cold storage.
After removed the bags for the MAP bag groups, all the fruits are placed in a hermetical chamber and treated with ethanol (3.5 mL/kg of fruit) for 12 hours.
After the treatment in the chambers, the RPCs are moved into racks at room temperature for storage and observation.
Firmness evaluation is as follows. Day “zero” was the day the persimmons are harvested and Day “one” is the day the persimmons are removed from the ethanol treatment.
(§5) For the Pulp Firmness evaluation, the persimmons have the skin removed with a peeler and the pulp firmness is measured with a Firmness Texture Analyzer (FTA) with a probe of 8 mm.

persimmons = experiment: Example 2: pulp firmness of persimmons, 1-MCP and ethanol before storage; settings: for Pulp Firmness, Day 0 / Pulp Firmness, Day 1 / Pulp Firmness, Day 4 / Pulp Firmness, Day 7 / Pulp Firmness, Day 10: 1000 ppb of MCP
From the text: This Example uses a similar test to Example 1 but with the ethanol application before the storage, at the same time as 1-MCP application.
Persimmons are harvested in Mogi das Cruzes—SP—Brazil and packed in RPC (Recycle Plastic Container) and shipped to Piracicaba—SP. At the same day of harvest part of the persimmons are packed in MAP bags.
as §1, §2, §3
On the same day the persimmons are bagged, each treatment set is marked, placed in a hermetical chamber at the Cold Room. All chambers are of equal size and packed the same way. Treatment lasts for 12 hours. In the chambers for the “MCP” treatment groups, at the beginning of the treatment period, SmartTabs™ tablets are placed in the chamber. The amount of SmartTab™ tablets is chosen to achieve the indicated concentration of 1-methylcyclopropene in the atmosphere of the chamber. At the same time the persimmons are exposed to ethanol with the purpose of removing the astringency (3.5 mL/kg of fruit).
After the storage at Cold Room, the bags are removed and the RPCs are moved into racks at room temperature for storage and observation.
Evaluation firmness is as follows. Day “zero” is the day the persimmons are harvested and Day “one” is the day the persimmons are removed from the cold storage.
as §5

persimmons, variety Fuyu = experiment: Example 3: pulp firmness of persimmons, MCP before storage; settings: for Pulp Firmness, Days 0 / Pulp Firmness, Days 3 / Pulp Firmness, Days 6: 500 ppb of MCP; for Pulp Firmness, Days 0: Day 0 after 60 days cold storage; for Pulp Firmness, Days 3: Day 3 after 60 days cold storage; for Pulp Firmness, Days 6: Day 6 after 60 days cold storage
Procedure: Persimmons are harvested in Madera—Calif. —USA and packed in cardboard boxes and shipped to Davis—Calif. At the same day of harvest part of the persimmons are packed in MAP bags. • Location: USA • Variety: Fuyu (non astringent, doesn't need ethanol application, ready to eat after harvest) • Storage at 0° C. for 60 days • MCP application before the storage • MAP Bag: Amcor bag type 30EF90.
The Amcor bag type 30EF90 has dimensions of 39.5″ (100.3 cm) wide and 35″ (88.9 cm) long. The bag is not perforated and has 25 microns thickness with an oxygen (O2) permeability of 6750 cc/[m^2 day]. The OTR of the bag is calculated to be 7560 cm^3/day.
as §1, with “10” for “16”, “(22.5” for “(36”, “RPC (Recycle Plastic Container).” for “RPC.”, “40” for “64”
The MAP-packaged persimmons are packaged as follows: 80 fruits, approximately 10 kg were carefully placed into microperforated bags, and the bags are sealed by twisting the open side of the bag, folding down the twisted end, and placing a rubber band around the twisted and folded end of the bag.
The appropriate weight of persimmons is placed in each bag after harvest and shipment. Bags are placed in RPC carrying devices. Persimmons then are moved to a Cold Room at 0° C.
as §4
After 60 days of storage at Cold Room, the bags are removed and the RPCs are moved into racks at room temperature for storage and observation.
Evaluation firmness is as follows. Day “zero” is the day the persimmons are removed from the cold storage.
as §5

[2] = tested on: persimmons, variety Rojo Brillante; experiment: Example 4: pulp firmness of persimmons, MCP before storage, CO2 astringency removal after storage; settings: cold storage, then room temperature for 7 days, MCP 600 ppb where applied
Procedure: Persimmons are harvested in Valencia—Spain and in the packing house part of the fruits are packed in plastic boxes and the other part is packed in MAP bags. • Location: Spain • Variety: Rojo Brillante (astringent, need CO2 application, ready to eat after astringency removal process) • Storage at 0° C. for 72 days • MCP application before the storage • MAP Bag: PE/EVA OP and Nylon bag with dimensions of 27″ (68.6 cm) width by 28″ (71.1 cm) length made from Kenylon 6250 Polyamide Film available from FM • Packaging
The Test Protocol is as follows. • a. PE/EVA OP Bags: 3 kg (6.6 lb) of fruits per bag, 5 bags per box and 6 RPC boxes • b. PE/EVA 8P Bags: 1 kg (2.2 lb) of fruits per bag, 15 bags per box and 6 RPC boxes • c. Nylon 0.2 and 0.35: 10 kg (22.5 lb) of fruits per bag, 2 bag per box and 6 RPC boxes • d. No Bag: 20 kg of fruits per box and 6 RPC boxes
The MAP-packaged persimmons are packaged as follows: fruits are carefully placed into microperforated bags, and the bags are sealed by twisting the open side of the bag, folding down the twisted end, and placing a rubber band around the twisted and folded end of the bag.
The appropriate weight of persimmons is placed in each bag after harvest and shipment. […]
For the Pulp Firmness evaluation, the persimmons have the skin removed with a peeler and the pulp firmness is measured with a Manual Penetrometer with a probe of 8 mm.

[3] = Day 0 = day of harvest, MCP 1000 ppb where applied

CC1=CC1 [SmartFresh, 1-methylcyclopropene]
Pulp Firmness, Day 0 ([1]; Bag MAP): 20.99 lbf | Pulp Firmness, Day 1 ([1]; Bag MAP): 18.62 lbf | Pulp Firmness, Day 4 ([1]; Bag MAP, Day 4): 18.18 lbf | Firmness results, Day 0 [1, 3]: 20.99 lbf | Firmness results, Day 1 ([1]; Day 1 = day removed from ethanol treatment, after 15 days at 12° C., MCP 1000 ppb where applied): 17.87 lbf | Firmness difference (Δ) as compared to the control group, Day 4 ([1]; Day 4): 0.89 lbf | Firmness results, Day 4 ([1]; Day 4, room temperature after 15 days at 12° C. and ethanol, MCP 1000 ppb where applied): 15.09 lbf | Firmness difference (Δ) as compared to the control group, Day 7 ([1]; Day 7): 1.55 lbf | Firmness results, Day 7 ([1]; Day 7, room temperature after 15 days at 12° C. and ethanol, MCP 1000 ppb where applied): 13.70 lbf | Firmness results, Day 10 ([1]; Day 10, room temperature after 15 days at 12° C. and ethanol, MCP 1000 ppb where applied): 12.62 lbf | Pulp Firmness, Day 0 ([1]; No Bag): 20.99 lbf | Pulp Firmness, Day 1 ([1]; No Bag): 16.65 lbf | Pulp Firmness, Day 4 ([1]; No Bag, Day 4): 14.74 lbf | firmness provided to the persimmons ([1]; after 1 day at room temperature): 0.15 lbf | Pulp Firmness, Day 0 (persimmons; Bag MAP): 20.99 lbf | Pulp Firmness, Day 1 (persimmons; Bag MAP, Day 1): 18.16 lbf | Pulp Firmness, Day 4 (persimmons; Bag MAP, Day 4): 16.94 lbf | Pulp Firmness, Day 7 (persimmons; Bag MAP): 15.84 lbf | Pulp Firmness, Day 10 (persimmons; Bag MAP): 14.23 lbf | Firmness results, Day 0 (persimmons; [3]): 20.99 lbf | Firmness difference (Δ) as compared to the control group, Day 1 (persimmons; Day 1): 0.15 lbf | Firmness results, Day 1 (persimmons; Day 1 = day removed from the cold storage (12° C.), MCP 1000 ppb where applied): 16.65 lbf | Firmness difference (Δ) as compared to the control group, Day 4 (persimmons; Day 4): −0.39 lbf | Firmness results, Day 4 (persimmons; Day 4, room temperature after cold storage, MCP 1000 ppb where applied): 14.74 lbf | Pulp Firmness, Day 0 (persimmons; No Bag): 20.99 lbf | Pulp Firmness, Day 1 (persimmons; No Bag, Day 1): 17.87 lbf | Pulp Firmness, Day 4 (persimmons; No Bag, Day 4): 15.09 lbf | Pulp Firmness, Day 7 (persimmons; No Bag): 13.70 lbf | Pulp Firmness, Day 10 (persimmons; No Bag): 12.62 lbf | firmness provided to the persimmons (persimmons; after 7 day at room temperature): 1.55 lbf | Firmness results, d60 + 3 day (persimmons, variety Fuyu; 60 days at 0° C. + 3 days at room temperature, MCP 500 ppb where applied): 9.1 lbf | Firmness results, d60 + 6 day (persimmons, variety Fuyu; 60 days at 0° C. + 6 days at room temperature, MCP 500 ppb where applied): 6.7 lbf | Firmness results, d60 + 0 day (persimmons, variety Fuyu; 60 days at 0° C., day removed from the cold storage, MCP 500 ppb where applied): 7.9 lbf | Pulp Firmness, Days 0 (persimmons, variety Fuyu; Bag MAP (Amcor)): 11.1 lbf | Pulp Firmness, Days 3 (persimmons, variety Fuyu; Bag MAP (Amcor)): 10.0 lbf | Pulp Firmness, Days 6 (persimmons, variety Fuyu; Bag MAP (Amcor)): 9.9 lbf | Pulp Firmness, Days 0 (persimmons, variety Fuyu; No Bag): 7.9 lbf | Pulp Firmness, Days 3 (persimmons, variety Fuyu; No Bag): 9.1 lbf | Pulp Firmness, Days 6 (persimmons, variety Fuyu; No Bag): 6.7 lbf | Firmness difference (Δ) as compared to the control group, d60 + 6 day (persimmons, variety Fuyu; d60 + 6 day): 6.2 lbf | firmness provided to the persimmons / maintained higher than the untreated fruits (persimmons, variety Fuyu; in vivo): 6.2 lbf | Firmness [2]: 3.33 kg | Δ, difference between the firmness for the treatment and the firmness for the No Bag treatment [2]: 1.33 kg
